This passage reports IC50 and Kd results from article PMC7773843 (Frontiers in Pharmacology, 2020).

One assay relates to HL-7702. Briefly: cells. Also noted: anti-proliferative / cytotoxicity assay on cell lines, IC50. Conditions: Homo sapiens, L02, read-out: IC50 (µM) HL-7702. The text has this: (§1) As shown in SPR and ITC data, the binding affinity of OC to Cath B was weaker than that of OC to HSPA8, justifying our selection of HSPA8 for further studies. To evaluate whether OC potentially binds to HSPA8 in cell lysates, we synthesized OC_biotin ([Wang et al., 2016]; Supplementary Figure S8) and performed a pulldown assay using avidin beads. We first examined whether OC_biotin has the same binding affinity with that of OC to HSPA8 using SPR and ITC assays. […] We then examined the anticancer activities of OC_biotin and OC in several cancer cell lines. As shown in Supplementary Table S4, OC_biotin exerted similar anti-proliferative activity to that of OC in multiple cancer cell lines, with IC50 ranging from 5 to 20 µM. […] By using HeLa cells that stably expressed GFP-LC3, we measured the GFP-LC3 puncta increment upon OC, OC_biotin and Hydroxychloroquine (HCQ) treatment. […] Avidin beads were used to perform the OC_biotin immunoprecipitation assay with cell lysates. Consistent with the SPR and ITC assays, we pulled down HSPA8 using cell lysates.

The test system of the next assay is PANC-1. Briefly: cells. Also noted: anti-proliferative / cytotoxicity assay on cell lines, IC50. Conditions: Homo sapiens, PANC-1, read-out: IC50 (µM).
Excerpt: as §1

For the next assay, the target named is T1, cathepsin B (Cath B) (Homo sapiens, UniProt P07858).
T1 construct: gene CTSB
Briefly: ITC (KD […]); SPR KD […]; protease activity IC50 […]. The format is binding.

Assay [1] has as its target T2, heat shock 70 kDa protein 8 (HSPA8) (Homo sapiens, UniProt P11142).
T2 construct: Full-length HSPA8, his-tagged, expressed in E. coli
Briefly: ITC (KD […]); SPR KD […] ([…] also printed); thermal shift lowers Tm by ~[…]°C. The class given is binding.

The next assay deals with A549. Briefly: cells. More on the design: anti-proliferative / cytotoxicity assay on cell lines, IC50. Conditions: Homo sapiens, A549, read-out: IC50 (µM).
Excerpt: as §1

The next assay has as its system HCT116-DKO. Briefly: cells. More on the design: anti-proliferative / cytotoxicity assay on cell lines, IC50. Conditions: read-out: IC50 (µM).
Excerpt: as §1

For the next assay, the system named is Hela. Briefly: cells. Also noted: anti-proliferative / cytotoxicity assay on cell lines, IC50. The note with it: Homo sapiens, HeLa, read-out: IC50 (µM).
Excerpt: as §1

For the next assay, the system named is MDA-MB-231. Briefly: cells. The note with it: Homo sapiens, MDA-MB-231, read-out: IC50 (µM). Also noted: anti-proliferative / cytotoxicity assay on cell lines, IC50.
Excerpt: as §1

The test system of the next assay is PC-3. Briefly: cells. More on the design: anti-proliferative / cytotoxicity assay on cell lines, IC50. The note with it: Homo sapiens, PC-3, read-out: IC50 (µM).
Excerpt: as §1

In general, IC50 refers to the midpoint of a concentration-inhibition curve. The term Kd denotes the concentration at which binding is half-saturated.

T2 sequence (P11142 whole entry): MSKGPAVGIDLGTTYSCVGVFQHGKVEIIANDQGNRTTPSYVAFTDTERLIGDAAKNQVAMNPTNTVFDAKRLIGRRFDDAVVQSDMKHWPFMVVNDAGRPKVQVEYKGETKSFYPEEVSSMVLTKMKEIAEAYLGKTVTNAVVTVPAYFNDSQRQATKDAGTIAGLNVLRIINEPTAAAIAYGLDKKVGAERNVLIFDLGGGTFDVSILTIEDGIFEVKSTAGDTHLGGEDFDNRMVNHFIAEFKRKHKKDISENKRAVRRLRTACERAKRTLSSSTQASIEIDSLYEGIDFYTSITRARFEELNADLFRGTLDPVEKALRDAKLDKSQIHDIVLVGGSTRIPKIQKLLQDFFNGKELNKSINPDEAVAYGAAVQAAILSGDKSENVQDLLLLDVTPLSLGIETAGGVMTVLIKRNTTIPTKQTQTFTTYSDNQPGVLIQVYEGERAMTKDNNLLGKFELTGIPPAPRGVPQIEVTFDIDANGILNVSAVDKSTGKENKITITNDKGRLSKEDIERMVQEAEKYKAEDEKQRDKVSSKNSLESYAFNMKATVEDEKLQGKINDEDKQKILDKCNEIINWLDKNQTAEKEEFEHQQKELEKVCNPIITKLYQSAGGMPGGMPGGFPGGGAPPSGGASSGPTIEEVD

On to `COc1cc([C@@H]2c3cc4c(cc3[C@@H](O[C@@H]3O[C@@H]5CO[C@@H](C)O[C@H]5[C@H](O)[C@H]3O)[C@H]3COC(=O)[C@H]23)OCO4)cc(OC)c1O` [Etoposide], for which the IC50 in the assay with HL-7702 is 1.42 ± 0.2 µM; with PANC-1 it was 22.7 ± 1.7 µM.
On to `CC(C)=CCC/C(C)=C/C[C@@H]1C[C@]2(CC=C(C)C)C(=O)[C@@](CC=C(C)C)(C(=O)C(C(=O)c3ccc(O)c(O)c3)=C2O)[C@@]1(C)CCC=C(C)C` [OC, Oblongifolin C], for which the results for the dissociation constant Kd (on cathepsin B (Cath B); in [1]) were 25.6 µM and 6.2 µM, respectively. The IC50 in the assay on A549 stood at 7.49 ± 0.9 µM; with HCT116-DKO it was 12.2 ± 0.9 µM; with HL-7702, 5.16 ± 0.4 µM; with Hela, 11 ± 1.2 µM; in the assay on MDA-MB-231 it was 15.9 ± 1.1 µM; in the assay with PANC-1, 17.5 ± 0.9 µM. In addition, the half-maximal inhibitory concentration (IC50) in the assay on PC-3 came out at 10.7 ± 0.6 µM.
